According to patent US10414811B2, “Protease-resistant lipidated GLP-1 analogs” (MEDIMMUNE LIMITED, priority 2015, dated 2019):
Where two headings read alike, the source gives them in different places. Numbered stars: 1 amine (or outer) side, 2 acyl side, 3 side chain; on linkers, the order of the positions; unused ones are H or OH. Square brackets hold non-standard residues; d marks the D form. Side chains are listed from the residue outwards. Peptide text beside a SMILES is read from it. * marks the point of attachment. C18 diacid = O=C(O)CCCCCCCCCCCCCCCCC(=O)*; γGlu = O=C(O)[C@H](CCC(=O)[*:2])N[*:1]; αMeF = C[C@](N)(Cc1ccccc1)C(=O)O; αMeK = C[C@](N)(CCCCN)C(=O)O; Lauroyl = CCCCCCCCCCCC(=O)*; αMeS = C[C@](N)(CO)C(=O)O; AEEA = NCCOCCOCC(=O)O; Aib = CC(C)(N)C(=O)O

How the values were obtained:
Format in all cases: cell-based
[1] = biological target: T1, human GLP-1 receptor (GLP-1R) (Homo sapiens, UniProt P43220); assay: cAMP assay, human GLP-1R cells
T1 construct: expressed in transfected cells
T1 sequence (P43220 24-463): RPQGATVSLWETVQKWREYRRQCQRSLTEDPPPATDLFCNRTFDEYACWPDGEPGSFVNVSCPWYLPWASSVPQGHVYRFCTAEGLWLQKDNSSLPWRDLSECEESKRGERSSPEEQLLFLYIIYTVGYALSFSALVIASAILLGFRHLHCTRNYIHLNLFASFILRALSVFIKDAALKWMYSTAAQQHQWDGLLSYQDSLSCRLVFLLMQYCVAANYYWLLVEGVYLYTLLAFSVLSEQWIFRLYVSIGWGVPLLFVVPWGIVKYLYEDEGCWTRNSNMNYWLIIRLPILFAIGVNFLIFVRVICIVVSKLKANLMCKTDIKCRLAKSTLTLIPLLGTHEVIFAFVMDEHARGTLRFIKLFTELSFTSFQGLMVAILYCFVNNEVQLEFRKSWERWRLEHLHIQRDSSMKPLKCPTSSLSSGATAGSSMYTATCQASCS
Outline: (§1)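 Peptide-stimulated cAMP measured by two-step HTRF after a 30 min room-temperature incubation with receptor-expressing cells (hGLP-1R, hGIPR at 1×10^5 cells/ml; hGCGR at 2×10^5 cells/ml). Duplicate dilutions; EC50 from 4-parameter logistic fit of % Delta F.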

[2] = biological target: T2, human glucagon receptor (GCGR) (Homo sapiens, UniProt P47871); assay: cAMP assay, human GCGR cells
T2 construct: expressed in transfected cells
T2 sequence (P47871 26-477): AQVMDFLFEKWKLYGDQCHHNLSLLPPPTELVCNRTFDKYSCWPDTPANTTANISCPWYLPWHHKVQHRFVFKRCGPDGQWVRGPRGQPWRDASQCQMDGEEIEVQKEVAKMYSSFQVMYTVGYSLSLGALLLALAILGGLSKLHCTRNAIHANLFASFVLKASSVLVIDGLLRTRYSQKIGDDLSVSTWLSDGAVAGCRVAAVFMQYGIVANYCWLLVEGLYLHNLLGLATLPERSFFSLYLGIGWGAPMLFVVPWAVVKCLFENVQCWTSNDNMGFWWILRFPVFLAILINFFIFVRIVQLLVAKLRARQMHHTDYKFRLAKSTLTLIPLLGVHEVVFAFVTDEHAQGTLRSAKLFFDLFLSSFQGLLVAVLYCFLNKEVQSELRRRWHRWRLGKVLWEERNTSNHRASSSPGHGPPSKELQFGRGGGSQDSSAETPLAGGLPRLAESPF
Outline: as §1

[3] = biological target: T3, human glucose-dependent insulinotropic peptide receptor (GIPR) (Homo sapiens, UniProt P48546); assay: cAMP assay, human GIPR cells
T3 construct: expressed in transfected cells
T3 sequence (P48546 22-466): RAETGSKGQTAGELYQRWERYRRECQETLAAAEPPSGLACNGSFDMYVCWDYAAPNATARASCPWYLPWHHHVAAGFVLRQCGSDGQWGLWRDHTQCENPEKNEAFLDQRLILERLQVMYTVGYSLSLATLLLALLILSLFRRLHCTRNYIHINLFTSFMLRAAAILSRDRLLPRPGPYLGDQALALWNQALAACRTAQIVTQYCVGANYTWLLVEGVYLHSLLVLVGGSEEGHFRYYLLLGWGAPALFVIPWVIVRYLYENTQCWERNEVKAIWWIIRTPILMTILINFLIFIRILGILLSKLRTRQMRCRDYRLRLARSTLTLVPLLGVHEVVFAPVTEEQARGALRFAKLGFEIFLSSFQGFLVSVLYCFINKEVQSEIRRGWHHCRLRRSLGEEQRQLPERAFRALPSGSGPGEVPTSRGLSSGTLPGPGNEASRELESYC
Outline: as §1

GLP-1R (INS1e assay) = biological target: T4, GLP-1R (INS1e assay) (Rattus norvegicus, UniProt P32301); assay: INS1e assay, cAMP activity at GLP-1R
T4 construct: endogenous in cells; host or cells: INS-1E cells
T4 sequence (P32301 22-463): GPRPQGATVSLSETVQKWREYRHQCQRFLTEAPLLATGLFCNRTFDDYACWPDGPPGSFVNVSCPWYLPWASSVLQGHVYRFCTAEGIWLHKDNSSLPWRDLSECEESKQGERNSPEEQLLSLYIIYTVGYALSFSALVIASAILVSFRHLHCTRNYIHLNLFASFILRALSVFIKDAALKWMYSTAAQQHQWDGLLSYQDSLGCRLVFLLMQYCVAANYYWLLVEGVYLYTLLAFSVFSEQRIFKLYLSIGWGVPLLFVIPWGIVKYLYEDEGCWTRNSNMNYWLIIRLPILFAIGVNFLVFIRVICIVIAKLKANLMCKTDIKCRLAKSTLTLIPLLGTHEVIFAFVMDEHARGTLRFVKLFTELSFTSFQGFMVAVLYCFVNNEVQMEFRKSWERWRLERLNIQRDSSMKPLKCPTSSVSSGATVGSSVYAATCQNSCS
Outline: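 cAMP was quantified by two-step HTRF, using anti-cAMP cryptate donor and cAMP-d2 acceptor, each diluted 1/20 in conjugate and lysis buffer. EC50 values of the synthetic peptides were derived from the cAMP readout.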

EC50 ([1]; tris-lipidated peptides, mean of n1 and n2, read-out: Primary assay EC50 Mean pM GLP-1R) [pM] | EC50 ([1]; tris-lipidated peptides, replicate n1, read-out: Primary assay EC50 GLP-1R n1) [pM] | EC50 ([1]; tris-lipidated peptides, replicate n2, read-out: Primary assay EC50 GLP-1R n2) [pM] | EC50 ([2]; tris-lipidated peptides, second replicate, read-out: Primary assay EC50 Gluc-R (n2)) [nM] | EC50 ([3]; tris-lipidated peptides, second replicate, read-out: Primary assay EC50 GIP-R (n2)) [nM] | EC50 (GLP-1R (INS1e assay); tris-lipidated peptides, mean of n1 and n2, read-out: INS1e assay EC50 Mean pM GLP-1R) [pM] | EC50 (GLP-1R (INS1e assay); tris-lipidated peptides, replicate n1, read-out: INS1e assay EC50 GLP-1R n1) [pM] | EC50 (GLP-1R (INS1e assay); tris-lipidated peptides, replicate n2, read-out: INS1e assay EC50 GLP-1R n2) [pM] | EC50 ([1]; cAMP assay, first determination (n1), read-out: Primary assay EC50 GLP-1R n1) [pM] | EC50 ([1]; cAMP assay, second determination (n2), read-out: Primary assay EC50 GLP-1R n2) [pM] | EC50 ([1]; mean of n1 and n2, read-out: Mean pM GLP-1R) [pM] | EC50 ([2]; cAMP assay, first determination (n1), read-out: Primary assay EC50 Gluc-R (n1)) [nM] | EC50 ([2]; cAMP assay, second determination (n2), read-out: Primary assay EC50 Gluc-R (n2)) [nM] | EC50 ([3]; cAMP assay, first determination (n1), read-out: Primary assay EC50 GIP-R (n1)) [nM] | EC50 ([3]; cAMP assay, second determination (n2), read-out: Primary assay EC50 GIP-R (n2)) [nM] | EC50 (GLP-1R (INS1e assay); mono-lipidated peptides, mean of n1 and n2, read-out: INS1e assay EC50 Mean pM GLP-1R) [pM] | EC50 (GLP-1R (INS1e assay); mono-lipidated peptides, replicate n1, read-out: INS1e assay EC50 GLP-1R n1) [pM] | EC50 (GLP-1R (INS1e assay); mono-lipidated peptides, replicate n2, read-out: INS1e assay EC50 GLP-1R n2) [pM] | SMILES
55.4 | 49.3 | 61.5 | 19.8 | 19.8 | 8920 | 9920 | 7910 | – | – | – | – | – | – | – | – | – | – | CCCCCCCCCCCC(=O)N[C@@H](CCC(=O)NCCOCCOCC(=O)NCCOCCOCC(=O)NCCCC[C@H](NC(=O)[C@H](C)NC(=O)[C@@H](NC(=O)[C@H](Cc1ccccc1)NC(=O)[C@H](CCC(=O)O)NC(=O)[C@](C)(CCCCN)NC(=O)[C@H](C)NC(=O)[C@H](C)NC(=O)[C@H](CCC(=O)O)NC(=O)[C@H](CCCCNC(=O)COCCOCCNC(=O)COCCOCCNC(=O)CC[C@H](NC(=O)CCCCCCCCCCC)C(=O)O)NC(=O)[C@H](CCC(=O)O)NC(=O)[C@H](CCCCNC(=O)COCCOCCNC(=O)COCCOCCNC(=O)CC[C@H](NC(=O)CCCCCCCCCCC)C(=O)O)NC(=O)[C@H](Cc1ccc(O)cc1)NC(=O)[C@H](CO)NC(=O)[C@](C)(CO)NC(=O)[C@@H](NC(=O)[C@H](CC(=O)O)NC(=O)[C@H](CO)NC(=O)[C@@H](NC(=O)[C@](C)(Cc1ccccc1)NC(=O)[C@H](CO)NC(=O)CNC(=O)[C@H](CCC(=O)O)NC(=O)C(C)(C)NC(=O)[C@@H](N)Cc1c[nH]cn1)[C@@H](C)O)C(C)C)[C@@H](C)CC)C(=O)N[C@H](C(=O)N[C@H](C(=O)N[C@@H](CCC(=O)O)C(=O)NCC(=O)NCC(N)=O)C(C)C)C(C)C)C(=O)O [compound 467] (H-H[Aib]EGS[αMeF]TSDV[αMeS]SYK([AEEA-AEEA-γGlu-Lauroyl])EK([AEEA-AEEA-γGlu-Lauroyl])EAA[αMeK]EFIAK([AEEA-AEEA-γGlu-Lauroyl])VVEGG-NH2; N-terminus assumed)
– | – | – | – | – | – | – | – | 72.1 | 48 | 60.1 | ≥ 25.4 | ≥ 25.4 | ≥ 25.4 | ≥ 25.4 | 12100 | 6150 | 18100 | CC[C@H](C)[C@H](NC(=O)[C@H](Cc1ccccc1)NC(=O)[C@H](CCC(=O)O)NC(=O)C(C)(C)NC(=O)[C@H](C)NC(=O)[C@H](C)NC(=O)[C@H](CCC(=O)O)NC(=O)CNC(=O)[C@H](CCC(=O)O)NC(=O)[C@H](CC(C)C)NC(=O)[C@](C)(Cc1ccccc1)NC(=O)[C@H](CO)NC(=O)[C@](C)(CO)NC(=O)[C@@H](NC(=O)[C@H](CC(=O)O)NC(=O)[C@H](CO)NC(=O)[C@@H](NC(=O)[C@](C)(Cc1ccccc1)NC(=O)[C@H](CO)NC(=O)CNC(=O)[C@H](CCC(=O)O)NC(=O)C(C)(C)NC(=O)[C@@H](N)Cc1c[nH]cn1)[C@@H](C)O)C(C)C)C(=O)N[C@@H](CCCCNC(=O)COCCOCCNC(=O)COCCOCCNC(=O)CC[C@H](NC(=O)CCCCCCCCCCCCCCCCC(=O)O)C(=O)O)C(=O)N[C@@H](Cc1c[nH]c2ccccc12)C(=O)N[C@H](C(=O)N[C@H](C(=O)N[C@@H](CCC(=O)O)C(=O)NCC(=O)NCC(N)=O)C(C)C)C(C)C [compound 67] (H-H[Aib]EGS[αMeF]TSDV[αMeS]S[αMeF]LEGEAA[Aib]EFIK([AEEA-AEEA-γGlu-C18 diacid])WVVEGG-NH2; N-terminus assumed)
